In US9708314B2, “Heterocyclic amide compound” (NISSAN CHEMICAL INDUSTRIES, LTD., priority 2013, dated 2017):

Legend:
Cyperus difformis = assay: Test Example 3: herbicidal effect by application to foliage (Wagner pot, water depth 0.1-0.5 cm); assay type: in vivo; details: Nineteenth Table; application to foliage; application herbicide amount 320 g/ha
Outline: (§1)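 Foliar spray, 14-day-old plants, emulsion diluted to target g/ha; rated 3 wk post-application, 0–5 scale (0 ≤5%, 5 ≥90% herbicidal ratio). Greenhouse 25–30 °C, alluvial soil.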

[1] = system: Echinochloa crus-galli var. crus-galli; assay: as above; assay type: in vivo; details: Nineteenth Table; application to foliage; application herbicide amount 320 g/ha
Outline: as §1

Leptochloa chinensis = assay: as above; assay type: in vivo; details: Nineteenth Table; application to foliage; application herbicide amount 320 g/ha
Outline: as §1

COCc1nnc2c(C(=O)Nc3nnnn3C)ccc(C(F)(F)F)n12 [2-010, 3-(Methoxymethyl)-N-(1-methyl-1H-tetrazol-5-yl)-5-(trifluoromethyl)-[1,2,4]triazol o[4,3-a]pyridine-8-carboxamide]
E (herbicidal effect grade) (Cyperus difformis): 5 (Herbicidal ratio of 90% or more (almost completely withered)) | H (herbicidal effect grade) [1]: 5 (Herbicidal ratio of 90% or more (almost completely withered)) | D (herbicidal effect grade) (Leptochloa chinensis): 5 (Herbicidal ratio of 90% or more (almost completely withered)) | melting point: 205 to 209 °C

CSc1nnc2c(C(=O)Nc3nnnn3C)ccc(C(F)(F)F)n12 [2-013]
E (herbicidal effect grade) (Cyperus difformis): 5 (Herbicidal ratio of 90% or more (almost completely withered)) | H (herbicidal effect grade) [1]: 5 (Herbicidal ratio of 90% or more (almost completely withered)) | D (herbicidal effect grade) (Leptochloa chinensis): 5 (Herbicidal ratio of 90% or more (almost completely withered))

COCCOCc1nnc2c(C(=O)Nc3nnnn3C)ccc(C(F)(F)F)n12 [2-014]
E (herbicidal effect grade) (Cyperus difformis): 5 (Herbicidal ratio of 90% or more (almost completely withered)) | H (herbicidal effect grade) [1]: 5 (Herbicidal ratio of 90% or more (almost completely withered)) | D (herbicidal effect grade) (Leptochloa chinensis): 5 (Herbicidal ratio of 90% or more (almost completely withered))

Cn1nnnc1NC(=O)c1ccc(C(F)(F)F)n2c(COCC(F)(F)F)nnc12 [2-015]
E (herbicidal effect grade) (Cyperus difformis): 5 (Herbicidal ratio of 90% or more (almost completely withered)) | H (herbicidal effect grade) [1]: 5 (Herbicidal ratio of 90% or more (almost completely withered)) | D (herbicidal effect grade) (Leptochloa chinensis): 5 (Herbicidal ratio of 90% or more (almost completely withered))

CCC(C)c1nnc2c(C(=O)Nc3nnnn3C)ccc(C(F)(F)F)n12 (stereo not shown) [2-016]
E (herbicidal effect grade) (Cyperus difformis): 5 (Herbicidal ratio of 90% or more (almost completely withered)) | H (herbicidal effect grade) [1]: 5 (Herbicidal ratio of 90% or more (almost completely withered)) | D (herbicidal effect grade) (Leptochloa chinensis): 5 (Herbicidal ratio of 90% or more (almost completely withered))

Cc1cc(-c2nnc3c(C(=O)Nc4nnnn4C)ccc(C(F)(F)F)n23)no1 [2-017]
E (herbicidal effect grade) (Cyperus difformis): 5 (Herbicidal ratio of 90% or more (almost completely withered)) | H (herbicidal effect grade) [1]: 5 (Herbicidal ratio of 90% or more (almost completely withered)) | D (herbicidal effect grade) (Leptochloa chinensis): 5 (Herbicidal ratio of 90% or more (almost completely withered))

CCCc1nnc2c(C(=O)Nc3nnnn3C)ccc(C(F)(F)F)n12 [2-019]
E (herbicidal effect grade) (Cyperus difformis): 5 (Herbicidal ratio of 90% or more (almost completely withered)) | H (herbicidal effect grade) [1]: 5 (Herbicidal ratio of 90% or more (almost completely withered)) | D (herbicidal effect grade) (Leptochloa chinensis): 5 (Herbicidal ratio of 90% or more (almost completely withered))

Cn1nnnc1NC(=O)c1ccc(C(F)(F)F)n2c(COc3ccccc3)nnc12 [2-020]
E (herbicidal effect grade) (Cyperus difformis): 4 (Herbicidal ratio of 70% or more and less than 90%) | H (herbicidal effect grade) [1]: 4 (Herbicidal ratio of 70% or more and less than 90%) | D (herbicidal effect grade) (Leptochloa chinensis): 4 (Herbicidal ratio of 70% or more and less than 90%)

Cn1nnnc1NC(=O)c1ccc(C(F)(F)F)n2c(C3CCCC3)nnc12 [2-021]
E (herbicidal effect grade) (Cyperus difformis): 5 (Herbicidal ratio of 90% or more (almost completely withered)) | H (herbicidal effect grade) [1]: 5 (Herbicidal ratio of 90% or more (almost completely withered)) | D (herbicidal effect grade) (Leptochloa chinensis): 5 (Herbicidal ratio of 90% or more (almost completely withered))

Cn1nnnc1NC(=O)c1ccc(C(F)(F)F)n2c(C3CCOC3)nnc12 (stereo not shown) [2-022]
E (herbicidal effect grade) (Cyperus difformis): 5 (Herbicidal ratio of 90% or more (almost completely withered)) | H (herbicidal effect grade) [1]: 5 (Herbicidal ratio of 90% or more (almost completely withered)) | D (herbicidal effect grade) (Leptochloa chinensis): 5 (Herbicidal ratio of 90% or more (almost completely withered))

CC(C)c1nnc2c(C(=O)N(C)c3nnnn3C)ccc(C(F)(F)F)n12 [2-023]
E (herbicidal effect grade) (Cyperus difformis): 0 (Herbicidal ratio of 5% or less (almost no effect)) | H (herbicidal effect grade) [1]: 4 (Herbicidal ratio of 70% or more and less than 90%) | D (herbicidal effect grade) (Leptochloa chinensis): 1 (Herbicidal ratio of 5% or more and less than 20%)

CCSc1nnc2c(C(=O)Nc3nnnn3C)ccc(C(F)(F)F)n12 [2-024]
E (herbicidal effect grade) (Cyperus difformis): 5 (Herbicidal ratio of 90% or more (almost completely withered)) | H (herbicidal effect grade) [1]: 5 (Herbicidal ratio of 90% or more (almost completely withered)) | D (herbicidal effect grade) (Leptochloa chinensis): 5 (Herbicidal ratio of 90% or more (almost completely withered))

CC(C)Sc1nnc2c(C(=O)Nc3nnnn3C)ccc(C(F)(F)F)n12 [2-025]
E (herbicidal effect grade) (Cyperus difformis): 5 (Herbicidal ratio of 90% or more (almost completely withered)) | H (herbicidal effect grade) [1]: 5 (Herbicidal ratio of 90% or more (almost completely withered)) | D (herbicidal effect grade) (Leptochloa chinensis): 5 (Herbicidal ratio of 90% or more (almost completely withered))

CCOCc1nnc2c(C(=O)Nc3nnnn3C)ccc(C(F)(F)F)n12 [2-026]
E (herbicidal effect grade) (Cyperus difformis): 5 (Herbicidal ratio of 90% or more (almost completely withered)) | H (herbicidal effect grade) [1]: 5 (Herbicidal ratio of 90% or more (almost completely withered)) | D (herbicidal effect grade) (Leptochloa chinensis): 5 (Herbicidal ratio of 90% or more (almost completely withered))

Cn1nnnc1NC(=O)c1ccc(C(F)(F)F)n2c(C(C)(C)C)nnc12 [2-027]
E (herbicidal effect grade) (Cyperus difformis): 5 (Herbicidal ratio of 90% or more (almost completely withered)) | H (herbicidal effect grade) [1]: 5 (Herbicidal ratio of 90% or more (almost completely withered)) | D (herbicidal effect grade) (Leptochloa chinensis): 5 (Herbicidal ratio of 90% or more (almost completely withered))

Cn1nnnc1NC(=O)c1ccc(C(F)(F)F)n2c(C3=NOC(C)(C)C3)nnc12 [2-028]
E (herbicidal effect grade) (Cyperus difformis): 5 (Herbicidal ratio of 90% or more (almost completely withered)) | H (herbicidal effect grade) [1]: 5 (Herbicidal ratio of 90% or more (almost completely withered)) | D (herbicidal effect grade) (Leptochloa chinensis): 5 (Herbicidal ratio of 90% or more (almost completely withered))

CSCc1nnc2c(C(=O)Nc3nnnn3C)ccc(C(F)(F)F)n12 [2-029]
E (herbicidal effect grade) (Cyperus difformis): 5 (Herbicidal ratio of 90% or more (almost completely withered)) | H (herbicidal effect grade) [1]: 5 (Herbicidal ratio of 90% or more (almost completely withered)) | D (herbicidal effect grade) (Leptochloa chinensis): 5 (Herbicidal ratio of 90% or more (almost completely withered))

Cn1nnnc1NC(=O)c1ccc(C(F)(F)F)n2c(CSCC(F)(F)F)nnc12 [2-030]
E (herbicidal effect grade) (Cyperus difformis): 4 (Herbicidal ratio of 70% or more and less than 90%) | H (herbicidal effect grade) [1]: 4 (Herbicidal ratio of 70% or more and less than 90%) | D (herbicidal effect grade) (Leptochloa chinensis): 5 (Herbicidal ratio of 90% or more (almost completely withered))

CC[S+]([O-])c1nnc2c(C(=O)Nc3nnnn3C)ccc(C(F)(F)F)n12 (stereo not shown) [2-031]
E (herbicidal effect grade) (Cyperus difformis): 5 (Herbicidal ratio of 90% or more (almost completely withered)) | H (herbicidal effect grade) [1]: 5 (Herbicidal ratio of 90% or more (almost completely withered)) | D (herbicidal effect grade) (Leptochloa chinensis): 5 (Herbicidal ratio of 90% or more (almost completely withered))

CC(C)[S+]([O-])c1nnc2c(C(=O)Nc3nnnn3C)ccc(C(F)(F)F)n12 (stereo not shown) [2-032]
E (herbicidal effect grade) (Cyperus difformis): 5 (Herbicidal ratio of 90% or more (almost completely withered)) | H (herbicidal effect grade) [1]: 5 (Herbicidal ratio of 90% or more (almost completely withered)) | D (herbicidal effect grade) (Leptochloa chinensis): 5 (Herbicidal ratio of 90% or more (almost completely withered))

Cn1nnnc1NC(=O)c1ccc(C(F)(F)F)n2c(C[S+](C)[O-])nnc12 (stereo not shown) [2-033]
E (herbicidal effect grade) (Cyperus difformis): 5 (Herbicidal ratio of 90% or more (almost completely withered)) | H (herbicidal effect grade) [1]: 5 (Herbicidal ratio of 90% or more (almost completely withered)) | D (herbicidal effect grade) (Leptochloa chinensis): 5 (Herbicidal ratio of 90% or more (almost completely withered))
